Source: patent US20260132123A1, “ABAD INHIBITOR COMPOUNDS” (UNIVERSITY COURT OF THE UNIVERSITY OF ST ANDREWS, priority 2021, published 2026)

Target: T1, 17β-HSD10 (Homo sapiens, UniProt Q99714)
T1 construct: Histev (histidine tag with TEV site) (N, cleaved yes); made in house; host or cells: E. coli BL21-CodonPlus
T1 sequence (Q99714 1-261): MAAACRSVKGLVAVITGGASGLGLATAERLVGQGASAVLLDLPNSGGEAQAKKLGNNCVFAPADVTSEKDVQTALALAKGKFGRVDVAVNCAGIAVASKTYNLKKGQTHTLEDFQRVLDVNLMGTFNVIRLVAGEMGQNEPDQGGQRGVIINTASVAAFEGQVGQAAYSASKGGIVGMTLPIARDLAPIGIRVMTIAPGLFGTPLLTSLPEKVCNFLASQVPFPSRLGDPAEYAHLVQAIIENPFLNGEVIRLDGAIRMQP
Assay: 17β-HSD10 (ABAD) enzyme inhibition assay, NADH oxidation read at 340 nm (primary screen and dose response)
Assay type: biochemical
Conditions: for ABAD plC50: primary screening, resynthesized HTS hit compounds; for EC50 / Max. Effect (%) / Hill Slope / Max. Fit / Min. Fit: recombinant 17βHSD10 enzyme assay; for Hill Slope / Max. Fit / Min. Fit: curve fit
Experimental: Cell pellets of E. coli BL21-CodonPlus cells containing Histev-17β-HSD10 protein were re-suspended for 30 min, 4° C., in lysis buffer (20 mM NaH2PO4, 30 mM imidazole, 500 mM NaCl, 10% (v/v) glycerol, pH 7.5) with the addition of complete ethylenediaminetetraacetic acid (EDTA)-free protease inhibitor tablets (Roche), lysozyme (1 mg/mL), deoxyribonuclease (DNase) (20 μg/mL) and Triton X-100 (0.1% (v/v)). Cells were lysed by passage through a cell disruptor at 30 kPSI (Constant Systems Ltd) and the lysate was cleared by centrifugation (Sorvall Evolution RC, rotor S5-34 55-34 angle, 20500 rpm, 30 min, 4° C.). Cleared lysate was filtered (0.45 μm membrane; Whatman) then applied to a Ni-nitrilotriacetic acid (NTA) (GE Healthcare) column pre-washed with lysis buffer and protein eluted with 300 mM imidazole buffer (20 mM NaH2PO4, 300 mM imidazole, 500 mM NaCl, 10% (v/v) glycerol, pH 7.5). […] Protein digestion and dialysis was carried out at 4° C. for 16 h.
Complete digestion was firstly checked by sodium dodecyl sulfate-polyacrylamide gel electrophoresis (SDS-PAGE), then fully digested protein was passed over a second Ni-column and the flow-through, containing 17β-HSD10 protein, was concentrated using a Vivaspin column (10 kDa MWCO, GE Healthcare) to ˜7 mL before final purification using gel filtration to remove imidazole (Hi-Load 16/60 Superdex 75 prep grade column, GE Healthcare, flow rate 1.5 mL/min). Protein was eluted in gel filtration buffer (10 mM trisaminomethane (Tris-HCl), 150 mM NaCl, 10% glycerol, pH 7.5) and concentrated (Vivaspin column (10 kDa molecular weight cut off (MWCO), GE Healthcare)) to 10 mg/mL. Aliquots (10 μL) were taken and flash frozen in liquid nitrogen before final storage at −80° C.
The assay buffer used contains: 10 mM Tris. HCl (pH 7.4), 150 mM NaCl, 1 mM DTT, 0.005% Tween (polysorbate 20) and 0.01% bovine serum albumin (BSA). As indicated for some experiments the assay buffer was supplemented with 100 units/ml bovine liver catalase. All experiments were conducted in clear bottom 384-well or 1536-well low volume microplates (Corning) with a final assay volume of 20 μL and the reaction progress was monitored by oxidation of NADH as determined by reduction in absorbance at 340 nm read on the EnVision plate reader (PerkinElmer).
For primary screening an endpoint assay format was adopted in which an Echo acoustic liquid dispenser (Labcyte) was used to transfer 20 nL of either reference standard, dimethylsulfoxide (DMSO) control ([…] final assay concentration (FAC)) or test compounds (10 μM FAC) to the assay plate. 10 μL of 17β-HSD10 enzyme in assay buffer (2.5 nM, FAC) was then added to the plates using the Preddator liquid handling robot (Redd and Whyte) and plates were incubated at room temperature for 15 minutes. 10 μL of substrate mixture (100 μM acetoacetyl-CoA and 100 μM NADH, FAC) was added with the Preddator. To start the reaction and the plates were left to incubate for 35 minutes at room temperature before the absorbance at 340 nm was read on the EnVision plate reader (PerkinElmer). For kinetic assay format and dose response follow up experiments the same protocol was adopted but the absorbance at 340 nm was monitored constantly for 45 minutes from immediately after the reaction was started.

Structure (SMILES)	EC50 [µM]	Max. Effect (%)	Hill Slope	Max. Fit	Min. Fit	17β-HSD10 / ABAD activity in words (SAR discussion)	ABAD plC50
CC(C)CN(C(=O)c1ccncc1)c1cccc(N(C)Cc2cnc[nH]2)c1 [ESC1002034, N-[3-[1H-imidazol-5-ylmethyl(methyl)amino]phenyl]-N-isobutyl-pyridine-4-carboxamide]	1.58	92	0.8	106	−3		5.8
COc1cccc(C(=O)N(CC(C)C)c2cccc(N(C)Cc3cnc[nH]3)c2)c1 [ESC1002038, N-[3-[1H-imidazol-5-ylmethyl(methyl)amino]phenyl]-N-isobutyl-3-methoxy-benzamide]	2	92	0.8	105	−2		5.7
CC(C)CN(C(=O)c1ccc(Cl)cc1F)c1cccc(N(C)Cc2cnc[nH]2)c1 [ESC1002042, 4-chloro-2-fluoro-N-[3-[1H-imidazol-5-ylmethyl(methyl)amino]phenyl]-N-isobutyl-benzamide]	0.316	98	0.8	101	−6		6.5
Cc1ccc(C(=O)Nc2cccc(N(C)Cc3cnc[nH]3)c2)cc1 [ESC1002054, N-[3-[1H-imidazol-5-ylmethyl(methyl)amino]phenyl]-4-methyl-benzamide]	> 20	3					
CN(Cc1cncn1C(=O)OC(C)(C)C)c1cccc(NC(=O)c2ccccc2F)c1 [ESC1002055]	> 20	1					
CN(Cc1cnc[nH]1)c1cccc(NC(=O)c2ccccc2F)c1 [ESC1002056, 2-fluoro-N-[3-[1H-imidazol-5-ylmethyl(methyl)amino]phenyl]benzamide]	> 20	4					
CC(C)N(C(=O)c1ccccc1F)c1cccc(N(C)Cc2cnc[nH]2)c1 [ESC1002078, 2-fluoro-N-[3-[1H-imidazol-5-ylmethyl(methyl)amino]phenyl]-N-isopropyl-benzamide]	0.631	97	1	101	−1		
Cc1ccc(C(=O)N(c2cccc(N(C)Cc3cnc[nH]3)c2)C(C)C)cc1 [ESC1002080, N-[3-[1H-imidazol-5-ylmethyl(methyl)amino]phenyl]-N-isopropyl-4-methyl-benzamide]	1	96	0.9	102	0		
O=C(c1ccccc1F)N1CCCc2ccc(NCc3cnc[nH]3)cc21 [ESC1002081, (2-fluorophenyl)-[7-(1H-imidazol-5-ylmethylamino)-3,4-dihydro-2H-quinolin-1-yl]methanone]	> 20	0				potency was abolished	
CN(Cc1cnc[nH]1)c1ccc2c(c1)N(C(=O)c1ccccc1F)CCC2 [ESC1002083, (2-fluorophenyl)-[7-[1H-imidazol-5-ylmethyl(methyl)amino]-3,4-dihydro-2H-quinolin-1-yl]methanone]	> 20	2					
Cc1ccc(C(=O)N(CC2CC2)c2cccc(N(C)Cc3c[nH]cn3)c2)cc1 [ESC1002399, N-(cyclopropylmethyl)-N-[3-[1H-imidazol-4-ylmethyl(methyl)amino]phenyl]-4-methyl-benzamide]	1	95	1.1	99	2		
Cc1ccsc1C(=O)N1CCC[C@@H]1c1ccccc1-c1ccc(C2CC2)cc1 [ESC1002422]	0.562	93	1.6	90	1		
Cc1ccsc1C(=O)N1CCC[C@@H]1c1ccccc1-c1ccc(F)cc1 [ESC1002423]	0.38	96	2.3	93	9		
Cc1ccsc1C(=O)N1CCC[C@@H]1c1ccccc1-c1cnn(C)c1 [ESC1002424]	0.933	96	1.3	96	2		
COc1cccc(-c2ccccc2[C@H]2CCCN2C(=O)c2cccs2)c1 [ESC1002425]	0.479	96	1.1	95	−8		
COc1cccc(-c2ccccc2[C@H]2CCCN2C(=O)c2ccc(C)s2)c1 [ESC1002426]	> 20	22					
COc1cccc(-c2ccccc2[C@H]2CCCN2C(=O)c2sc(C)nc2C)c1 [ESC1002427]	> 20	4					
COc1cccc(-c2ccccc2[C@H]2CCCN2C(=O)c2ccccc2C)c1 [ESC1002434]	> 20	20				not tolerated	

Further lines, with some results ahead:

EC50 [µM]	Max. Effect (%)	Hill Slope	Max. Fit	Min. Fit	17β-HSD10 / ABAD activity in words (SAR discussion)	Structure (SMILES)	ABAD plC50
> 20	16					COc1cccc(-c2ccccc2[C@H]2CCCN2C(=O)c2cc(C)cs2)c1 [ESC1002428]	
> 20	6				significantly less active	COc1cccc(-c2ccccc2[C@H]2CCCN2C(=O)c2snnc2C)c1 [ESC1002429]	
6.03	65	1.2	80	−1	significantly less active	COc1cccc(-c2ccccc2[C@H]2CCCN2C(=O)c2scnc2C)c1 [ESC1002430]	
0.977	96	1.5	95	1		COc1cccc(-c2ccccc2[C@H]2CCCN2C(=O)c2sccc2F)c1 [ESC1002431]	
> 20	17					COc1cccc(-c2ccccc2[C@H]2CCCN2C(=O)c2sccc2OC)c1 [ESC1002433]	
> 20	12					COc1cccc(-c2ccccc2[C@H]2CCCN2C(=O)C2CCOCC2)c1 [ESC1002435]	
> 20	2					COc1cccc(-c2ccccc2[C@H]2CCCN2C(=O)C2CCN(C)CC2)c1 [ESC1002436]	
0.457	96	1.1	97	−8		CC(C)CN(C(=O)c1ccc(F)cc1F)c1cccc(N(C)Cc2c[nH]cn2)c1 [ESC1002454, 2,4-difluoro-N-[3-[1H-imidazol-4-ylmethyl(methyl)amino]phenyl]-N-isobutyl-benzamide]	
1.26	92	0.99	97	−7		CC(C)CN(C(=O)c1ccc(C(F)(F)F)cc1F)c1cccc(N(C)Cc2c[nH]cn2)c1 [ESC1002455, 2-fluoro-N-[3-[1H-imidazol-4-ylmethyl(methyl)amino]phenyl]-N-isobutyl-4-(trifluoromethyl)benzamide]	
0.447	95	1.4	94	−4		CC(C)CN(C(=O)c1ccccc1Cl)c1cccc(N(C)Cc2c[nH]cn2)c1 [ESC1002457, 2-chloro-N-[3-[1H-imidazol-4-ylmethyl(methyl)amino]phenyl]-N-isobutyl-benzamide]	
